Assay results published in EPA's ToxRefDB 2.

Experiments:
[1] = test system: rat; conditions: Subchronic oral toxicity in rodents, sprague dawley, Gavage/Intubation, dose end: 90 day, group: systemic
[2] = test system: rat; conditions: Sub-acute repeat dose toxicity, sprague dawley, Oral, Gavage/Intubation, dose end: 10 day, group: systemic
[3] = test system: rat; conditions: Multigenerational reproductive toxicity study, other, Oral, Feed, dose end: 2 generation
[4] = test system: mouse; conditions: Carcinogenicity, cd1, Oral, Feed, dose end: 24 month, group: systemic
[5] = test system: dog; conditions: Chronic toxicity, beagle, Oral, Feed, dose end: 104 week, group: systemic
[6] = test system: rat; conditions: Prenatal developmental toxicity study, Crl: CD BR, Oral, Gavage/Intubation, dose end: 15 GD
[7] = test system: rabbit; conditions: Prenatal developmental toxicity study, other, Oral, Gavage/Intubation, dose end: 18 GD
[8] = test system: rabbit; conditions: Prenatal developmental toxicity study, new zealand white, Oral, Gavage/Intubation, dose end: 18 GD
[9] = test system: rat; conditions: Subchronic oral toxicity in rodents, wistar, Feed, dose end: 3 month, group: systemic, systemic / organ weight / liver / nos
[10] = test system: rat; conditions: Chronic toxicity, wistar, Oral, Feed, dose end: 105 week, group: systemic
[11] = systemic / clinical chemistry / alkaline phosphatase (alp/alk) / alkaline phosphatase (alp/alk) + systemic / clinical chemistry / calcium / …
[12] = systemic / pathology microscopic / liver / inflammation + systemic / clinical chemistry / aspartate aminotransferase (ast/sgot) / aspartate …
[13] = systemic / clinical chemistry / cholesterol / cholesterol + systemic / in life observation / body weight / body weight + systemic / organ …
[14] = group: offspring, systemic / in life observation / body weight / offspring (pup) weight
[15] = group: parental, systemic / in life observation / body weight / body weight gain + systemic / clinical chemistry / gamma glutamyl transferase (ggt) / gamma …
[16] = group: parental, systemic / in life observation / body weight / body weight gain + systemic / in life observation / food consumption / food consumption + …
[17] = systemic / organ weight / liver / relative to body weight
[18] = systemic / organ weight / kidney / relative to body weight + systemic / organ weight / pancreas / relative to body weight + systemic / organ…
[19] = group: developmental, developmental / developmental malformation / bone / incomplete ossification
[20] = group: developmental, developmental / developmental malformation / bone / incomplete ossification + systemic / in life observation / body weight / fetal weight + …
[21] = group: maternal, systemic / in life observation / body weight / body weight gain + systemic / in life observation / food consumption / food consumption + …
[22] = group: developmental, developmental / developmental malformation / bone / [other]
[23] = group: maternal, systemic / in life observation / body weight / body weight gain
[24] = group: maternal, systemic / in life observation / body weight / body weight gain + systemic / in life observation / food consumption / food consumption
[25] = group: developmental, systemic / in life observation / body weight / fetal weight
[26] = group: maternal, reproductive / reproductive performance / reproductive performance other / runts
[27] = systemic / in life observation / body weight / body weight gain + systemic / organ weight / kidney / absolute + systemic / organ weight / …

Clc1cccc(Cl)c1 [1,3-Dichlorobenzene]
LOAEL [1, 11]: > 588 mg/kg/day
NOAEL [1, 11]: ≥ 588 mg/kg/day
LEL [1, 12]: 9 mg/kg/day
NEL [1, 12]: < 9 mg/kg/day
NEL ([2]; systemic / clinical chemistry / cholesterol / cholesterol + systemic / in life observation / body weight / body weight + systemic / in life …): 37 mg/kg/day
LOAEL [2, 13]: > 735 mg/kg/day
NOAEL [2, 13]: ≥ 735 mg/kg/day
LEL ([2]; systemic / organ weight / liver / nos + systemic / pathology microscopic / liver / necrosis): 147 mg/kg/day

CSc1nnc(C(C)(C)C)c(=O)n1N [Metribuzin]
LEL [3, 14]: 7.5 mg/kg/day
LOAEL [3, 14]: 7.5 mg/kg/day
NEL [3, 14]: 1.5 mg/kg/day
NOAEL [3, 14]: 1.5 mg/kg/day
LEL [3, 15]: 7.5 mg/kg/day
LOAEL [3, 15]: 7.5 mg/kg/day
NEL [3, 16]: 1.5 mg/kg/day
NOAEL [3, 16]: 1.5 mg/kg/day
LOAEL ([4]; systemic / hematology / hematocrit (hct) / hematocrit (hct) + systemic / hematology / hemoglobin (hgb) / hemoglobin (hgb)): 567 mg/kg/day
NOAEL ([4]; systemic / hematology / hematocrit (hct) / hematocrit (hct) + systemic / hematology / hemoglobin (hgb) / hemoglobin (hgb) + systemic / organ…): 139 mg/kg/day
LEL [4, 17]: 35 mg/kg/day
NEL [4, 17]: < 35 mg/kg/day
LOAEL ([5]; systemic / clinical chemistry / cholesterol / cholesterol + systemic / hematology / blood clotting / blood clotting - prothrombin time + …): 37.5 mg/kg/day
LEL [5, 18]: 0.625 mg/kg/day
NEL [5, 18]: < 0.625 mg/kg/day
NOAEL ([5]; systemic / organ weight / kidney / relative to body weight + systemic / organ weight / pancreas / relative to body weight + systemic / …): 2.5 mg/kg/day
LEL [6, 19]: 25 mg/kg/day
NEL [6, 19]: < 25 mg/kg/day
LOAEL [6, 20]: 200 mg/kg/day
NOAEL [6, 20]: 70 mg/kg/day
LEL [6, 21]: 25 mg/kg/day
LOAEL [6, 21]: > 200 mg/kg/day
NEL [6, 21]: < 25 mg/kg/day
NOAEL [6, 21]: ≥ 200 mg/kg/day
LEL [7, 22]: 85 mg/kg/day
LOAEL [7, 22]: 85 mg/kg/day
NEL [7, 22]: 30 mg/kg/day
NOAEL [7, 22]: 30 mg/kg/day
LEL [7, 23]: 30 mg/kg/day
LOAEL [7, 23]: 30 mg/kg/day
NEL [7, 24]: 10 mg/kg/day
NOAEL [7, 24]: 10 mg/kg/day
LEL [8, 25]: 45 mg/kg/day
LOAEL [8, 25]: 45 mg/kg/day
NEL [8, 25]: 15 mg/kg/day
NOAEL [8, 25]: 15 mg/kg/day
LOAEL ([8]; group: maternal, reproductive / reproductive performance / aborted / aborted + systemic / in life observation / body weight / body weight): 135 mg/kg/day
NOAEL ([8]; group: maternal, reproductive / reproductive performance / aborted / aborted + systemic / in life observation / body weight / body weight + reproductive / …): 45 mg/kg/day
LEL [8, 26]: 45 mg/kg/day
NEL [8, 26]: 15 mg/kg/day
LEL [9]: 3 mg/kg/day
LOAEL [9]: 3 mg/kg/day
NEL [9]: 1.25 mg/kg/day
NOAEL [9]: 1.25 mg/kg/day
LOAEL ([10]; systemic / in life observation / body weight / body weight gain): 14.4 mg/kg/day
NEL [10, 27]: 1.3 mg/kg/day
NOAEL [10, 27]: 5.27 mg/kg/day
LEL ([10]; systemic / organ weight / lung / relative to body weight): 1.87 mg/kg/day
